One test relates to A549. Description: Cell-based assay, anti-proliferative activity (Cell Counting Kit-8, 72 hours). The settings on record: Homo sapiens, read-out: IC50 (μM) A549. Summed up: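 Following seeding into 96-well microtiter plates, the cells receive candidate inhibitors, and cellular growth is quantified at the end of the exposure period. An IC50 is computed for each compound.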
A general note: Formazan colour is commonly taken as a measure of viable cells.

For another test, the system named is CCD-18Co. Described as above. Conditions: Homo sapiens, read-out: IC50 (μM) CCD-18Co. The method, boiled down: (§1)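 Cells were seeded in 96-well plates and exposed to the inhibitors for 72 hours, after which growth was measured with Cell Counting Kit-8. IC50 was derived from a serial dilution series of 0, 1.5625, 3.125, 6.25, 12.5, 25, 50 and 100 micro-M.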
In the next test the test system is HCT-116. The description is as above. The settings on record: Homo sapiens, read-out: IC50 (μM) HCT-116. The method, boiled down:
as §1

A further test relates to HFL1. Described as above. The settings on record: Homo sapiens, read-out: IC50 (μM) HFL1. Summed up:
as §1

The next test concerns PC14. Described as above. The settings on record: Homo sapiens, read-out: IC50 (μM) PC14. The method, boiled down:
as §1

A further test addresses SUV39H2 (Homo sapiens (Human), UniProt Q9H5I1). The settings on record: read-out: IC50 (μM) Suv 39H2 assay.
Setting [1] is: A549 cells, 72 hours, Cell Counting Kit-8.
Setting [2] is: CCD-18Co cells, 72 hours, Cell Counting Kit-8.
The mark [3] stands for this setting: HCT-116 cells, 72 hours, Cell Counting Kit-8.
Where [4] appears, read: HFL1 cells, 72 hours, Cell Counting Kit-8.
The mark [5] stands for this setting: PC-14, PC14 cells, 72 hours, Cell Counting Kit-8.

Where a name gives a salt, the structure may show the parent alone. Read-outs that look alike come from different tables or passages of the source.

Chain of SUV39H2 (Q9H5I1 whole entry): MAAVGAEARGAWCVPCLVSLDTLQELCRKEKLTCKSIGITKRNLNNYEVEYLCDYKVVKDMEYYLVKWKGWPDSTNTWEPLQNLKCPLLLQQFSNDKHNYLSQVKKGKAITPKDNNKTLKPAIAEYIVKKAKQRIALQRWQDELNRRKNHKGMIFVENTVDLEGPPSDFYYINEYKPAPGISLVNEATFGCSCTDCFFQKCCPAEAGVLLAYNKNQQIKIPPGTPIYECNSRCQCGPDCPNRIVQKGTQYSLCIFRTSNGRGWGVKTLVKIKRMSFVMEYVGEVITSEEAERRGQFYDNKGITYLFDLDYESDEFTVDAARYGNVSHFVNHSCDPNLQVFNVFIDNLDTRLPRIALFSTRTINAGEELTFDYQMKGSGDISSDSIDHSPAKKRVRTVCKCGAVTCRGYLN

As for `COc1cc(OC)c(-c2cn3cc(NCCNC(C)=O)c(N4CCOCC4)cc3n2)cc1Cl` [Example 224, N-(2-((2-(5-chloro-2,4-dimethoxyphenyl)-7-morpholinoimidazo[1,2-a]-pyridin-6-yl)amino)ethyl)acetamide], the IC50 (usually the concentration that gives 50% inhibition) with A549 (A549, 72 h) was 10 µM; in the test with CCD-18Co (CCD-18Co, 72 h) it was 10 µM; in the test on HCT-116 (HCT-116, 72 h), 10 µM; in the test with HFL1 (HFL1, 72 h) it was 10 µM; with PC14 (PC-14, 72 h), 10 µM; on SUV39H2 (enzyme assay), 0.0337 µM.

Take `COc1cc(OC)c(-c2cn3cc(NCCN)c(N4CCN(S(=O)(=O)C5CC5)CC4)cc3n2)cc1Cl` [Example 225, N^1-(2-(5-chloro-2,4-dimethoxyphenyl)-7-(4-(cyclopropylsulfonyl)-piperazin-1-yl)imidazo[1,2-a]pyridin-6-yl)ethane-1,2-diamine]: the IC50 in the test on A549 (setting [1]) came out at 10 µM; in the test with CCD-18Co (setting [2]), 7.3 µM; in the test on HCT-116 (setting [3]), 9.6 µM; in the test with HFL1 (setting [4]), 7.3 µM; with PC14 (setting [5]), 6.9 µM; on SUV39H2 (enzyme assay), 0.0022 µM.

For the molecule `COc1cc(OCCCN(C)C)c(-c2cn3ccc(N4CCN(S(=O)(=O)C(C)C)CC4)nc3n2)cc1Cl` [Example 226, 3-(4-chloro-2-(7-(4-(isopropylsulfonyl)piperazin-1-yl)imidazo[1,2-a]-pyrimidin-2-yl)-5-methoxyphenoxy)-N,N-dimethylpropan-1-amine], the IC50 with A549 (setting [1]) came to 10 µM; with CCD-18Co (setting [2]), 10 µM; in the test with HCT-116 (setting [3]) it was 7.8 µM; in the test on HFL1 (setting [4]), 8.9 µM; in the test with PC14 (setting [5]), 5.5 µM; on SUV39H2 (enzyme assay), 0.0655 µM.

Consider `COc1cc(OCCCN(C)C)c(-c2cn3ccc(N4CCN(S(=O)(=O)C5CCCC5)CC4)nc3n2)cc1Cl` [Example 227, 3-(4-chloro-2-(7-(4-(cyclopentylsulfonyl)piperazin-1-yl)imidazo[1,2-a]-pyrimidin-2-yl)-5-methoxyphenoxy)-N,N-dimethylpropan-1-amine], for which the IC50 in the test with A549 (setting [1]) was 7 µM; in the test on CCD-18Co (setting [2]), 6.2 µM; with HCT-116 (setting [3]), 5.2 µM; in the test with HFL1 (setting [4]), 5.7 µM; in the test with PC14 (setting [5]) it was 5.4 µM; at SUV39H2 (enzyme assay) it was 0.0382 µM.

Turning to `COc1cc(C)c(Cl)cc1-c1cn2ccc(N3CCNCC3)cc2n1` [Example 228, 2-(5-chloro-2-methoxy-4-methylphenyl)-7-(piperazin-1-yl)imidazo[1,2-a]pyridine hydrochloride], the IC50 amounted to 2.8 µM with A549 (A549, 72 h); 2.6 µM with CCD-18Co (CCD-18Co, 72 h); 2 µM in the test on HCT-116 (HCT-116, 72 h); 1.6 µM with HFL1 (HFL1, 72 h); 2.3 µM in the test with PC14 (PC-14, 72 h); 0.033 µM on SUV39H2.

For the molecule `COc1cc(C)c(Cl)cc1-c1cn2ccc(N3CCN(S(=O)(=O)C4CC4)CC3)cc2n1` [Example 229, 2-(5-chloro-2-methoxy-4-methylphenyl)-7-(4-(cyclopropylsulfonyl)-piperazin-1-yl)imidazo[1,2-a]pyridine], the IC50 in the test on A549 (setting [1]) was 1.9 µM; in the test with CCD-18Co (setting [2]) it was 3.8 µM; with HCT-116 (setting [3]), 2.1 µM; in the test with HFL1 (setting [4]) it was 2.3 µM; in the test with PC14 (setting [5]), 0.8 µM; on SUV39H2 (enzyme assay), 0.0775 µM.

`COc1cc(C)c(Cl)cc1-c1cn2ccc(N3CCOCC3)cc2n1` [Example 230, 4-(2-(5-chloro-2-methoxy-4-methylphenyl)imidazo[1,2-a]pyridin-7-yl)morpholine]: the IC50 with A549 (setting [1]) was determined as 4.4 µM; in the test on CCD-18Co (setting [2]), 3.5 µM; in the test with HCT-116 (setting [3]) it was 4 µM; with HFL1 (setting [4]) it was 2.8 µM; in the test with PC14 (setting [5]), 1.6 µM; at SUV39H2 (enzyme assay), 0.0183 µM.

In the case of `COc1cc(OC)c(-c2cn3ccc(N4CCC(O)CC4)cc3n2)cc1Cl` [Example 231, 1-(2-(5-chloro-2,4-dimethoxyphenyl)imidazo[1,2-a]pyridine-7-yl)piperidin-4-ol], the IC50 worked out at 10 µM in the test on A549 (setting [1]); 9.1 µM in the test with CCD-18Co (setting [2]); 10 µM with HCT-116 (setting [3]); 6.7 µM in the test on HFL1 (setting [4]); 3.9 µM in the test with PC14 (setting [5]); 0.00488 µM at SUV39H2 (enzyme assay).

As for `COc1cc(OC)c(-c2cn3ccc(N4CCN(C(=O)OC(C)(C)C)CC4)cc3n2)cc1Cl` [Example 232, tert-butyl 4-[2-(5-chloro-2,4-dimethoxyphenyl)imidazo[1,2-a]pyridin-7-yl]piperazine-1-carboxylate], the IC50 turned out to be 1.5 µM in the test with A549 (setting [1]); 1.5 µM with CCD-18Co (setting [2]); 1.7 µM with HCT-116 (setting [3]); 1.1 µM with HFL1 (setting [4]); 0.73 µM with PC14 (setting [5]); 0.0291 µM on SUV39H2 (enzyme assay).

On to `COc1cc(Cl)c(Cl)cc1-c1cn2ccc(N3CCCC3)cc2n1` [Example 233, 2-(4,5-dichloro-2-methoxyphenyl)-7-(pyrrolidin-1-yl)imidazo[1,2-a]-pyridine], for which the IC50 in the test with A549 (setting [1]) turned out to be 2.6 µM; in the test with CCD-18Co (setting [2]) it was 2.8 µM; with HCT-116 (setting [3]), 2.7 µM; in the test with HFL1 (setting [4]), 2.7 µM; in the test with PC14 (setting [5]), 1.8 µM; on SUV39H2 (enzyme assay), 0.085 µM.

Regarding `COc1cc(OCCN)c(-c2cn3ccc(N4CCN(S(=O)(=O)C5CC5)CC4)cc3n2)cc1Cl` [Example 234, 2-(4-chloro-2-(7-(4-(cyclopropylsulfonyl)piperazin-1-yl)imidazo[1,2-a]-pyridin-2-yl)-5-methoxyphenoxy)ethanamine], the IC50 in the test with A549 (setting [1]) was 10 µM; with CCD-18Co (setting [2]) it was 6.1 µM; in the test on HCT-116 (setting [3]) it was 5.3 µM; with HFL1 (setting [4]), 6.2 µM; in the test with PC14 (setting [5]) it was 6.4 µM; at SUV39H2 (enzyme assay), 0.0418 µM.

Turning to `COc1cc(OC)c(-c2cn3ccc(N4CCNC(CO)C4)cc3n2)cc1Cl` (stereo not drawn) [Example 235, (4-(2-(5-chloro-2,4-dimethoxyphenyl)imidazo[1,2-a]pyridin-7-yl)-piperazin-2-yl)methanol], the IC50 in the test on A549 (setting [1]) amounted to 5.3 µM; in the test with CCD-18Co (setting [2]), 6.7 µM; in the test with HCT-116 (setting [3]), 6.6 µM; in the test on HFL1 (setting [4]), 4.3 µM; in the test on PC14 (setting [5]) it was 5.6 µM; at SUV39H2 (enzyme assay), 0.0115 µM.

Turning to `COc1cc(OC)c(-c2cn3ccc(N4CCN(S(=O)(=O)C5CC5)C(CO)C4)cc3n2)cc1Cl` (stereo not drawn) [Example 236, (4-(2-(5-chloro-2,4-dimethoxyphenyl)imidazo[1,2-a]pyridin-7-yl)-1-(cyclopropylsulfonyl)piperazin-2-yl)methanol], the IC50 was 4.8 µM in the test on A549 (setting [1]); 4 µM in the test on CCD-18Co (setting [2]); 4.4 µM with HCT-116 (setting [3]); 4.1 µM in the test with HFL1 (setting [4]); 3.3 µM in the test with PC14 (setting [5]); 0.00655 µM on SUV39H2 (enzyme assay).

As for `COC(=O)CCCN1CCN(c2ccn3cc(-c4cc(Cl)c(OC)cc4OC)nc3c2)CC1` [Example 237, methyl 4-(4-(2-(5-chloro-2,4-dimethoxyphenyl)imidazo[1,2-a]pyridine-7-yl)piperazin-1-yl)butanoate], the IC50 with A549 (setting [1]) came to 10 µM; in the test with CCD-18Co (setting [2]), 10 µM; in the test on HCT-116 (setting [3]) it was 10 µM; in the test on HFL1 (setting [4]) it was 10 µM; in the test on PC14 (setting [5]), 10 µM; on SUV39H2 (enzyme assay) it was 0.0113 µM.

Take `COc1cc(OC)c(-c2cn3ccc(N4CCN(C(=O)C5CC5)CC4)cc3n2)cc1Cl` [Example 238, (4-(2-(5-chloro-2,4-dimethoxyphenyl)imidazo[1,2-a]pyridine-7-yl)piperazin-1-yl)(cyclopropyl)methanone]: the IC50 with A549 (setting [1]) is 2.5 µM; in the test with CCD-18Co (setting [2]) it was 3 µM; with HCT-116 (setting [3]), 2.9 µM; with HFL1 (setting [4]), 2.4 µM; in the test on PC14 (setting [5]), 1.6 µM; at SUV39H2 (enzyme assay), 0.00416 µM.

With `COc1cc(OC)c(-c2cn3ccc(N4CCN(C5CCCC5)CC4)cc3n2)cc1Cl` [Example 239, 2-(5-chloro-2,4-dimethoxyphenyl)-7-(4-cyclopentylpiperazin-1-yl)imidazo[1,2-a]pyridine], the IC50 is 1.5 µM in the test on A549 (setting [1]); 2.1 µM with CCD-18Co (setting [2]); 1.5 µM in the test with HCT-116 (setting [3]); 1.7 µM with HFL1 (setting [4]); 1.8 µM with PC14 (setting [5]); 0.021 µM at SUV39H2 (enzyme assay).

As for `COc1cc(OC)c(-c2cn3ccc(N4CCN(CCCC(=O)O)CC4)cc3n2)cc1Cl` [Example 240, 4-(4-(2-(5-chloro-2,4-dimethoxyphenyl)imidazo[1,2-a]pyridine-7-yl)piperazin-1-yl)butanoic acid], the IC50 with A549 (setting [1]) is 10 µM; with CCD-18Co (setting [2]), 10 µM; with HCT-116 (setting [3]) it was 10 µM; in the test with HFL1 (setting [4]) it was 10 µM; in the test on PC14 (setting [5]), 10 µM; on SUV39H2 (enzyme assay), 0.0063 µM.

As for `COc1cc(OC)c(-c2cn3ccc(N4CCN(C(=O)C5CCCC5)CC4)cc3n2)cc1Cl` [Example 241, (4-(2-(5-chloro-2,4-dimethoxyphenyl)imidazo[1,2-a]pyridine-7-yl)piperazin-1-yl)(cyclopentyl)methanone], the IC50 came to 2.3 µM in the test on A549 (setting [1]); 2.5 µM with CCD-18Co (setting [2]); 2.4 µM in the test with HCT-116 (setting [3]); 1.5 µM with HFL1 (setting [4]); 1.6 µM in the test on PC14 (setting [5]); 0.00768 µM at SUV39H2 (enzyme assay).

The values above are taken from patent US10508109B2 (priority 2015, dated 2019).
